Read-outs that look alike come from different tables or passages of the source.
Key:
hGALR-1 = target: T1, hGALR-1 (Homo sapiens, UniProt P47211); test: Human Galanin-1 Receptor Binding Assay (SPA, 125I human galanin displacement); conditions: membranes from human Bowes melanoma cells
T1 construct: hGALR-1 that is contained in membranes from human Bowes melanoma cells; endogenous in cells; host or cells: human Bowes melanoma cells (membranes)
T1 sequence (P47211 1-349): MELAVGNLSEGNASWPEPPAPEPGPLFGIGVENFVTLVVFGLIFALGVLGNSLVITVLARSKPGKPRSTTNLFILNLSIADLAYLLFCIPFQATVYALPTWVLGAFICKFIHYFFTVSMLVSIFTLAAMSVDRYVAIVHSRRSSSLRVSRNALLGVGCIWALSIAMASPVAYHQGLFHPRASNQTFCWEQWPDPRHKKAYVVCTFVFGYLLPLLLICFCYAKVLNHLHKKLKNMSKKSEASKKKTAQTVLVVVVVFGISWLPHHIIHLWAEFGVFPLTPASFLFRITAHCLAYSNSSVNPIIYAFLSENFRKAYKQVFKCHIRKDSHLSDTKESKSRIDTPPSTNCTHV
Protocol: This assay determines the concentration (IC50) of a test compound which prevents 50% of galanin from binding to the hGALR-1 that is contained in membranes from human Bowes melanoma cells bound to wheat germ agglutinin conjugated Scintillation Proximity Assay (SPA) beads. The IC50 value is obtained by measuring the effect of half log increment dilutions of the test compound in duplicate using a 96-well plate (eight-rows, 12-columns).
The SPA beads (500 mg) were dissolved in 12.5 mL of assay buffer composed of 20mM DMSO-HEPES (pH 7.4), 0.1% bovine serum albumin, 2mM MgCl2, 2mM CaCl2, and protease inhibitors. Enough of this suspension for five plates (25 µL x 5 x 96 wells = 12000 µL) was dispensed into a 50 mL sterile Falcon tube. The amount of membranes required for five plates was then added (50µg x 5 x 96 wells), followed by 32.5 mL of 30% DMSO-HEPES buffer. The mixture was placed on a rotator and agitated for 0.5 hours and the non-specific binding sites on the beads were blocked by the addition of 5% [final] fetal bovine serum. Each well of the 96-well plate received 100 µL of this mixture.
To the control column (column 12) rows A and B was added 3.75 µL of a 300 µM solution of galantide in 30% DMSO-HEPES buffer, to rows C and D was added 3.75 µL of 30% DMSO-HEPES buffer and to rows E and F was added 3.75 µL of a 300 µM solution of galanin in 30% DMSO-HEPES buffer. In columns 1 through 11 were added solutions of the test compound in 30% DMSO-HEPES buffer starting at 30 µM and decreasing in concentration in half-log dilutions. A solution of radioactive ^125I human galanin (46.25 µL), prepared from 25 micro Curies of ^125I human galanin (2000 ci/mmol) and 500 µL of assay buffer, was added to each well. The plate was sealed with adhesive paper and incubated for 16 hr at room temperature before the quench-corrected bound radioactivity was measured in a Topcount® apparatus. For each dilution, the % inhibition of galanin binding was calculated as follows: Total binding (T) = Mean counts/minute (cpm) in row C and D in column 12 [formula] Non-specific binding (NSB) = Mean cpm in row E and F in column 12 [formula] Total specific binding (TS) = T-NSB [formula] cpm in each well = C [formula] net cpm in each well (N) = C-NSB [formula] % inhibition = 100%-N × 100%/TS [formula]
The IC50 values for each compound were calculated from the non-linear regression curve of the data using Prism® graphics software.

Rat Galanin-1 Receptor = target: T2, Rat Galanin-1 Receptor (Rattus norvegicus, UniProt Q62805); test: Galanin-1 receptor mediated inhibition of acetylcholine release from rat brain cortical slices (superfusion, K+-evoked [3H]acetylcholine efflux); conditions: for Acetycholine Secretion Stimulated (change vs Control) / Acetycholine Secretion Stimulated: K+-evoked; for Acetycholine Secretion Basal / Acetycholine Secretion Stimulated: mean fractional tritium release
T2 construct: Rat brain cerebrocortical tissues were chopped into slices; from tissue; host or cells: rat brain cerebrocortical slices
T2 sequence (Q62805 1-346): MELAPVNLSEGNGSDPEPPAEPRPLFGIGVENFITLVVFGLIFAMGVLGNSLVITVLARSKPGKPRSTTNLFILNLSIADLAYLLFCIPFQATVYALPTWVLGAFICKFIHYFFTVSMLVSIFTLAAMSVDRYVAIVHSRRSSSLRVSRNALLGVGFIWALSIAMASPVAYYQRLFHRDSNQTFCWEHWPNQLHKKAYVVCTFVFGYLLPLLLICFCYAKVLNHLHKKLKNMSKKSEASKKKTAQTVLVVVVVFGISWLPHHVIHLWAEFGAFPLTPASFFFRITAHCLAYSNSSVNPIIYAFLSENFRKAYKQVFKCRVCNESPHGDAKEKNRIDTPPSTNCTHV
Protocol: Rat brain cerebrocortical tissues were chopped into slices of 300 x 300 x […] using a Mcllwain tissue chopper. The slices were washed and incubated at 37°C for 30 min in Krebs-Ringer solution: NaCl 118 mM, KCI 4.8 mM, CaCl2 1.3 mM, KH2PO4 1.2 mM, MgSO4 1.2 mM, NaHCO3, 25 mM, glucose […], ascorbic acid […] (previously aerated for 10 min with 95% O2/5% CO2 to obtain a pH of 7.4) and 0.1 µM [Methyl-^3H]choline chloride (85 Ci/mmol, Amersham Life Sciences, Arlington Heights, IL). After incubation, the slices were washed three times with ice-cold physiological solution and resuspended in 6 ml of cold solution. Equal aliquots of the tissue suspension were placed in each of 6 parallel superfusion chambers (Hugo Sachs Elektronik, March-Hugstetten, Germany). A circular piece of nylon mesh (pore size 250 um) was placed just below each chamber outlet in order to prevent the loss of tissue. The chambers were perfused against gravity with oxygenated Krebs-Ringer containing 1 mM physostigmine hemisulfate at a flow rate of 1 ml/min. At the concentration used, physostigmine had no effect on the release of total radioactivity from tissue slices. The onset of superfusion was defined as time zero (t0). Starting at 30 min after t0, 10 min fractions of the effluent were collected.
Release of [^3H]acetylcholine was induced by superfusing tissues for 30 sec with 65mM K^+-Krebs-Ringer solution (made by isomolar replacement of NaCl with KCI). Four potassium pulses were given respectively at 40 min (S1), 70 min (S2), 100 min (S3) and 130 min (S4) after to. No significant deterioration in fractional release was observed during the 4 consecutive stimuli. […] To permit construction of concentration-effect curves, concentrations of agents were increased 10 fold between each stimulus.
Following perfusion, the tissue was homogenized in 1 ml ethanol and aliquots of superfusates (0.4ml) and tissue homogenates (0.04ml) were added to 5 ml of Scintsafe PlusTM 50% (Fisher Scientific, Pittsburgh, PA) and radioactivity counted by liquid scintillation spectrometry. The total ^3H content in this procedure consisted mainly of [^3H]acetylcholine.
Tritium (^3H) efflux into the superfusate was calculated as the fraction of tritium content in the slices or synaptosomes at the onset of the respective collection period. For calculation of the stimulated tritium overflow, the estimated basal efflux (the average of the 10 min fractions immediately before and after each stimulation) was subtracted from the total tritium efflux during the 10 min fraction which began with the 30 sec K^+ pulse. This difference was then used to calculate the percent of K^+-evoked release of acetylcholine.
In order to quantify the in vitro effect of a drug on stimulated tritium outflow, the ratio of the fraction released by a given pulse, Sn, to that evoked by S1, was determined. Data presented below are expressed as the mean fractional tritium release ± S.E.M. Statistical differences between treatments were tested by the two-tailed Student's t test or the two factor ANOVA as appropriate. Individual differences in the dose-response curve was evaluated by the Newman-Keul multiple comparison.

[1] = Table II, formula (II) compounds, read-out: hGAL IC50
[2] = Table I, formula (I) compounds, read-out: HGAL IC50

| SMILES | IC50 (hGALR-1; [1]) [nM] | other results |
| --- | --- | --- |
| O=C(Oc1ccccc1)c1cccc(C2=CS(=O)(=O)CCCS2(=O)=O)c1 [Cmpd 33] | 440 | – |
| O=S1(=O)C=C(c2cccc(Br)c2)S(=O)(=O)CCC1 [Cmpd 9] | 890 | – |
| O=S1(=O)C=C(c2ccc(S(=O)(=O)c3ccccc3)cc2)S(=O)(=O)CCC1 [Cmpd 35] | 1580 | – |
| O=S1(=O)C=C(c2ccccc2F)S(=O)(=O)CCC1 [Cmpd 29] | 430 | – |
| O=C(NCCc1ccccc1)c1ccc(C2=CS(=O)(=O)CCCS2(=O)=O)cc1 [Cmpd 38] | 1060 | – |
| O=S1(=O)C=C(c2ccc(C3CCCCC3)cc2)S(=O)(=O)CCC1 [Cmpd 25] | 1100 | – |
| Cc1ccccc1C1=CS(=O)(=O)CCCS1(=O)=O [Cmpd 18] | 1600 | – |
| O=S1(=O)C=C(c2cccs2)S(=O)(=O)CCC1 [Cmpd 40] | 1300 | – |
| O=S1(=O)C=C(c2ccc(OC(F)(F)F)cc2)S(=O)(=O)CCC1 [Cmpd 23] | 490 | – |
| O=S1(=O)C=C(c2ccc(-c3ccccc3)cc2)S(=O)(=O)CCC1 [Cmpd 24] | 600 | – |
| COc1cccc(C2=CS(=O)(=O)CCCS2(=O)=O)c1 [Cmpd 7] | 910 | – |
| O=S1(=O)C=C(c2ccc(C(F)(F)F)cc2)S(=O)(=O)CCC1 [Cmpd 22] | 2100 | – |
| O=S1(=O)C=C(c2cccc(F)c2)S(=O)(=O)CCC1 [Cmpd 16] | – | Acetycholine Secretion Basal (change vs Control) (Rat Galanin-1 Receptor; 1 µM+GAL): -38.9%; Acetycholine Secretion Stimulated (change vs Control) (Rat Galanin-1 Receptor; 1 µM+GAL): -23.9%; Acetycholine Secretion Basal (Rat Galanin-1 Receptor; 1 µM+GAL): 2.20; Acetycholine Secretion Basal (change vs Control) (Rat Galanin-1 Receptor; 10 µM+GAL): -37% |
| O=S1(=O)C=C(c2cccc(C(F)(F)F)c2)S(=O)(=O)CCC1 [Cmpd 11] | 600 | – |
| O=S1(=O)C=C(c2ccsc2)S(=O)(=O)CCC1 [Cmpd 41] | 1300 | – |
| Cc1cccc(C2=CS(=O)(=O)CCCS2(=O)=O)c1 [Cmpd 6] | 1300 | – |
| O=S1(=O)C=C(c2ccccc2C(F)(F)F)S(=O)(=O)CCC1 [Cmpd 31] | 580 | – |
| CCc1ccc(C2=CS(=O)(=O)CCCS2(=O)=O)cc1 [Cmpd 26] | 430 | – |

| SMILES | IC50 (hGALR-1; [1]) [nM] | other results |
| --- | --- | --- |
| O=S1(=O)C=C(c2cccc(Cl)c2)S(=O)(=O)CCC1 [Cmpd 8] | 1000 | – |
| O=S1(=O)C=C(c2ccc(Oc3ccccc3)cc2)S(=O)(=O)CCC1 [Cmpd 19] | 410 | – |
| O=S1(=O)C=C(c2ccccc2)S(=O)(=O)CC1 [Cmpd 1] | – | IC50 (hGALR-1; [2]): 2700 nM |
| NC(Cc1ccccc1)C1=CS(=O)(=O)CCS1(=O)=O (centres unmarked) [Cmpd 3] | – | IC50 (hGALR-1; [2]): 8000 nM |
| O=S1(=O)C=C(c2ccccc2Cl)S(=O)(=O)CCC1 [Cmpd 12] | 640 | – |
| CCOC(=O)c1ccc(C2=CS(=O)(=O)CCCS2(=O)=O)cc1 [Cmpd 34] | 1000 | – |
| O=S1(=O)C=C(c2cccc3ccccc23)S(=O)(=O)CCC1 [Cmpd 37] | 371 | – |
| COc1ccccc1C1=CS(=O)(=O)CCCS1(=O)=O [Cmpd 32] | 1000 | – |
| CCCNC(=O)c1ccc(C2=CS(=O)(=O)CCCS2(=O)=O)cc1 [Cmpd 36] | 1040 | – |
| O=S1(=O)C=C(c2ccc(Br)cc2)S(=O)(=O)CCC1 [Cmpd 13] | 260 | – |
| O=S1(=O)C=C(c2ccccc2Br)S(=O)(=O)CCC1 [Cmpd 30] | 570 | – |
| O=S1(=O)C=C(c2cccc(I)c2)S(=O)(=O)CCC1 [Cmpd 27] | 850 | – |
| CCOc1ccc(C2=CS(=O)(=O)CCCS2(=O)=O)cc1 [Cmpd 28] | 590 | – |
| O=S1(=O)C=C(c2cccc(OC(F)(F)F)c2)S(=O)(=O)CCC1 [Cmpd 20] | 2700 | – |
| O=S1(=O)C=C(c2ccccc2)S(=O)(=O)CCC1 [Cmpd 5] | 2700 | – |
| O=S1(=O)C=C(c2ccc(I)cc2)S(=O)(=O)CCC1 [Cmpd 17] | 710 | Acetycholine Secretion Basal (change vs Control) (Rat Galanin-1 Receptor; 1 µM+GAL): -39.2%; Acetycholine Secretion Stimulated (change vs Control) (Rat Galanin-1 Receptor; 1 µM+GAL): -35.2%; Acetycholine Secretion Stimulated (Rat Galanin-1 Receptor; 1 µM+GAL): 5.37; Acetycholine Secretion Basal (Rat Galanin-1 Receptor; 1 µM+GAL): 2.19; Acetycholine Secretion Basal (change vs Control) (Rat Galanin-1 Receptor; 10 µM+GAL): -37%; Acetycholine Secretion Stimulated (change vs Control) (Rat Galanin-1 Receptor; 10 µM+GAL): -22.3%; Acetycholine Secretion Stimulated (Rat Galanin-1 Receptor; 10 µM+GAL): 6.44; Acetycholine Secretion Basal (Rat Galanin-1 Receptor; 10 µM+GAL): 2.27 |
| O=S1(=O)C=C(c2ccc(F)cc2)S(=O)(=O)CCC1 [Cmpd 14] | 410 | – |
| CCCCOc1ccc(C(=O)NC(Cc2ccccc2)C2=CS(=O)(=O)CCS2(=O)=O)cc1 (centres unmarked) [Cmpd 4] | – | IC50 (hGALR-1; [2]): 1000 nM |

— patent EP1192149B1, “1,4-DITHIIN AND 1,4-DITHIEPIN- 1,1,4,4, TETROXIDE DERIVATIVES USEFUL AS ANTAGONISTS OF THE HUMAN GALANIN RECEPTOR” (Ortho-McNeil Pharmaceutical, Inc., priority 1999, dated 2000)
